{"source": "patent US10449247B2", "about": "“Compositions and methods for enhancing immune response” (priority 2007, dated 2019)", "type_in_all_cases": "cell-based, Human", "key": {"[1]": {"test_system": "THP-1 cells", "assay": "Cytokine release ELISA, naive THP-1 cells treated directly", "procedure": "Human THP-1 monocytoid cells (acute monocytic leukemia) were obtained from American Type Tissue Collection (#TIB-202). Cells were cultured in RPMI-1640 medium supplemented with 2 mM L-glutamine, 10 mM HEPES, 1.0 mM sodium pyruvate, 10% fetal bovine serum and antibiotics. Peripheral blood monocytes (PBM) and lymphocytes (PBL) were isolated from PBMC by positive and negative selection, respectively, using the Miltenyi Biotec MACs magnetic separation system. PBM were cultured in RPMI-1640 medium supplemented with 2 mM L-glutamine, 10 mM HEPES, 1.0 mM sodium pyruvate, 20% fetal bovine serum and antibiotics. PBL were seeded in the same medium with the exception that 10% FBS was used. Specific cell densities and experimental conditions are described below.\nCells were evaluated in both naïve challenge and LPS challenge models. For naive studies, cells were exposed directly to OxBC for varying time frames and cytokine expression evaluated in conditioned medium (CM) by ELISA. For LPS challenge, cells were first incubated with OxBC for the indicated time, at which point OxBC was removed and replaced with fresh medium lacking the compound. At different time points post-treatment, cells were then challenged with LPS (15 ng/ml) for 24 h prior to cytokine levels in CM being evaluated by ELISA. In a variation of the LPS challenge scenario, primary PBM were first challenged with LPS for 24 h. After this initial stimulation, LPS-treated cells were then exposed to OxBC for 24 h before CM was harvested for ELISA analysis.\nAnalysis of cytokine levels in CM was performed using Endogen Human ELISA kits (Pierce) according to manufacturer's instructions. CM was prepared by centrifugation to remove cellular debris and either used neat, diluted with complete medium or concentrated using Nanosep 3K centrifugal concentrators (Pall) to ensure that cytokine levels fell within the linear ranges of each assay. Where appropriate, samples were stored at −80° C. and thawed by gradual equilibration at room temperature prior to use. Briefly, 50 μl samples were added to each well of a microplate to which antibody specific to the cytokine of interest had been adsorbed and incubated at room temperature for 1-3 h. Plates were washed three times to remove nonspecifically bound material and incubated for an additional 1-3 h with biotinylated antibody specific to the cytokine of interest. After washing, plates were incubated for 30 min with steptavidin-horse radish peroxidase reagent followed by an additional washing cycle. Washed plates were incubated for 30 min with 3,3′,5,5′-tetramethylbenzidine (TMB) substrate, the reaction stopped and absorbance measured at 450 nm (550 nm reference). Reference curves were generated for each cytokine using the supplied recombinant standard.\nA primary proof-of-principle study was conducted in THP-1 cells that were untreated (mock) or treated for 24 h with OxBC, PMA (25 ng/ml) and vehicle (DMSO). […] Moreover, no change in MCP-1 and IL-8 expression was detected at lower concentrations of the compound. Both MCP-1 and IL-8 function as cytokines to recruit immune cells to sites of infection or injury. For example, IL-8 primarily recruits neutrophils within an inflammatory response and is also termed neutrophils recruitment factor (NRF), while MCP-1 primarily functions to recruit other monocytes. Expression of either cytokine by monocytes/macrophages is induced in response to detection of antigen or phagocytosis of an invading pathogen."}, "[2]": {"test_system": "THP-1 cells", "assay": "FACS analysis of surface receptor expression in THP-1 cells (no LPS)", "procedure": "Human THP-1 monocytoid cells (acute monocytic leukemia) were obtained from American Type Tissue Collection (#TIB-202). Cells were cultured in RPMI-1640 medium supplemented with 2 mM L-glutamine, 10 mM HEPES, 1.0 mM sodium pyruvate, 10% fetal bovine serum and antibiotics. Cells were seeded (5×10^5 cells/well, 6-well culture plates) 24 h prior to treatment with OxBC and harvested for analysis according to three protocols: 1) Cells were treated with OxBC (2.5, 7.5 or 12.5 μM) for 24 h and than evaluated for surface receptor expression; 2) Cells were treated with OxBC (0.1, 0.5 or 1.0 μM) for 24 h, at which point fresh media lacking OxBC was supplied for 48 h prior to analysis, and 3) Cells were treated with OxBC (0.1, 0.5 or 1.0 μM) for 24 h, at which point fresh media lacking OxBC was supplied for 5 days. Treated cells were then stimulated with LPS (15 ng/ml) for 24 h prior to analysis. Cells incubated in an equivalent percentage (v/v) of DMSO alone served as controls. For studies in which LPS stimulation was not employed, PMA 25 ng/ml) was used as positive stimulator of monocytes differentiation.\nPhycoerythrin (PE)-labeled primary antibodies against human CD11b, CD14, CD16, CD36, CD51/CD61, HLA (broad isoforms), HLA-B7, CD86, CD40, CD40L and CD3 were obtained from AbCam. Receptor expression was evaluated using direct immunofluorescence labeling and flow cytometry analysis. Briefly, triplicate cell aliquots in cold buffer (PBS containing 10% FBS and 1% sodium azide) were incubated with primary antibody (10-20 μl) for 45 min at room temperature under low light conditions. Cells were washed three times and resuspended in 500 μl of buffer for analysis using a FacsAria cell sorter. Unlabeled cells and cells labeled with antibody alone served as controls."}, "[3]": {"test_system": "THP-1 cells", "assay": "Vybrant phagocytosis assay (fluorescein-labeled E. coli particles), THP-1 cells", "procedure": "Human THP-1 monocytoid cells (acute monocytic leukemia) were obtained from American Type Tissue Collection (#TIB-202). Cells were cultured in RPMI-1640 medium supplemented with 2 mM L-glutamine, 10 mM HEPES, 1.0 mM sodium pyruvate, 10% fetal bovine serum and antibiotics. Primary peripheral blood monocytes (PBM) were isolated from mixed peripheral blood mononuclear cell preparations using the Miltenyi Biotec MACs magnetic separation system. PBM were cultured in the same medium as THP-1 cells, with the exception that 20% fetal bovine serum was used. Cells were seeded (1×10^5 cells/well, 96-well culture plates) 24 h prior to treatment with OxBC, PMA (25 ng/ml) and/or LPS (15 ng/ml) as described below. Cells incubated in an equivalent percentage (v/v) of DMSO alone served as controls.\nPhagocytosis in monocyte cultures was evaluated using a Vybrant phagocytosis assay kit (Invitrogen, #V6694) based upon the ingestion of fluorescein-labeled E. coli (strain K12) bacterial particles. Briefly, treated cells were incubated at 37° C. for 5 h with a 1000 suspension of fluorescent bioparticles in Hank's buffered salt solution. […] The trypan blue solution was removed and the number of ingested particles determined using a fluorescence microplate reader (480 nm excitation, 520 nm emission). […] After recovery, the cells were treated with LPS for an 24 h before phagocytosis was measured."}, "[4]": {"settings": "THP-1, 24 h, PMA 25 ng/ml, proof-of-principle"}}}
{"compound": "CCCCCCCCCCCCCC(=O)O[C@@H]1[C@@H](C)[C@@]2(O)[C@@H](C=C(CO)C[C@]3(O)C(=O)C(C)=C[C@@H]23)[C@@H]2C(C)(C)[C@]12OC(C)=O", "note": "[PMA, Phorbol myristate acetate]", "values": [{"measurement": "IFNγ", "setting": "[1]; [4]", "value": "10.0 ± 1.3", "unit": "pg/mL"}, {"measurement": "IL-1β", "setting": "[1]; [4]", "value": "73.4 ± 2.8", "unit": "pg/mL"}, {"measurement": "IL-8", "setting": "[1]; [4]", "value": "637.2 ± 18.6", "unit": "pg/mL"}, {"measurement": "IL-12", "setting": "[1]; [4]", "value": "8.0 ± 6.5", "unit": "pg/mL"}, {"measurement": "MCP-1", "setting": "[1]; [4]", "value": "654.9 ± 60.2", "unit": "pg/mL"}, {"measurement": "TNF", "setting": "[1]; [4]", "value": "110.1 ± 1.7", "unit": "pg/mL"}, {"measurement": "IFNγ", "setting": "[1]; THP-1, PMA 25 ng/ml, Table 3", "value": 24.9, "unit": "pg/mL"}, {"measurement": "IL-1β", "setting": "[1]; THP-1, PMA 25 ng/ml, Table 3", "value": 62.5, "unit": "pg/mL"}, {"measurement": "IL-6", "setting": "[1]; THP-1, PMA 25 ng/ml, Table 3", "value": 20.3, "unit": "pg/mL"}, {"measurement": "IL-8", "setting": "[1]; THP-1, PMA 25 ng/ml, Table 3", "value": 712.4, "unit": "pg/mL"}, {"measurement": "IL-12", "setting": "[1]; THP-1, PMA 25 ng/ml, Table 3", "value": 20.9, "unit": "pg/mL"}, {"measurement": "MCP-1", "setting": "[1]; THP-1, PMA 25 ng/ml, Table 3", "value": 574.8, "unit": "pg/mL"}, {"measurement": "TNF", "setting": "[1]; THP-1, PMA 25 ng/ml, Table 3", "value": 108.5, "unit": "pg/mL"}, {"measurement": "CD11b expression, fold change relative to vehicle controls", "setting": "[2]; THP-1, 24 h, PMA 25 ng/ml", "value": "0.97 ± 0.02", "unit": "fold"}, {"measurement": "CD14 expression, fold change relative to vehicle controls", "setting": "[2]; THP-1, 24 h, PMA 25 ng/ml", "value": "1.91 ± 0.06", "unit": "fold"}, {"measurement": "CD16 expression, fold change relative to vehicle controls", "setting": "[2]; THP-1, 24 h, PMA 25 ng/ml", "value": "4.77 ± 0.31", "unit": "fold"}, {"measurement": "CD36 expression, fold change relative to vehicle controls", "setting": "[2]; THP-1, 24 h, PMA 25 ng/ml", "value": "1.03 ± 0.01", "unit": "fold"}, {"measurement": "CD51 expression, fold change relative to vehicle controls", "setting": "[2]; THP-1, 24 h, PMA 25 ng/ml", "value": "5.07 ± 0.29", "unit": "fold"}, {"measurement": "B7-2 (CD86) expression, fold change relative to vehicle controls", "setting": "[2]; THP-1, PMA 25 ng/ml", "value": "2.04 ± 0.29", "unit": "fold"}, {"measurement": "CD11b receptor density (fluorescence intensity), fold change relative to vehicle controls", "setting": "[2]; THP-1, PMA 25 ng/ml", "value": "1.97 ± 0.01", "unit": "fold"}, {"measurement": "CD36 receptor density (fluorescence intensity), fold change relative to vehicle controls", "setting": "[2]; THP-1, PMA 25 ng/ml", "value": "4.57 ± 0.03", "unit": "fold"}, {"measurement": "CD40L expression, fold change relative to vehicle controls", "setting": "[2]; THP-1, PMA 25 ng/ml", "value": "1.4 ± 0.10", "unit": "fold"}, {"measurement": "CD40 counts, fold change relative to vehicle controls", "setting": "[2]; THP-1, PMA 25 ng/ml", "value": "0.98 ± 0.01", "unit": "fold"}, {"measurement": "CD40 intensity, fold change relative to vehicle controls", "setting": "[2]; THP-1, PMA 25 ng/ml", "value": "1.31 ± 0.1", "unit": "fold"}, {"measurement": "HLA (DQ/DR/DP) expression, fold change relative to vehicle controls", "setting": "[2]; THP-1, PMA 25 ng/ml", "value": "1.05 ± 0.01", "unit": "fold"}, {"measurement": "increase of densities of CD11b and CD36", "setting": "[2]; THP-1, PMA 25 ng/ml", "value": "2 to 4", "unit": "fold"}, {"measurement": "phagocytic activity", "setting": "[3]; THP-1, PMA 24 h, 72 h recovery", "value": "large increase in phagocytic activity"}, {"measurement": "increase in phagocytic activity relative to control cultures", "setting": "[3]; naive THP-1, PMA 25 ng/ml 24 h", "value": "12.94±2.05", "unit": "fold"}]}
